According to PubChem BioAssay (NCI):
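Five compound concentrations were applied to cells in 96-well plates for 48 hours; endpoints were derived by simple linear interpolation of the resulting dose-response curve. The concentration for full growth arrest is given as TGI.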

Assays:
Test in all cases: growth of human tumour cells (NCI), 48 h
LOX IMVI melanoma = tested on: LOX IMVI melanoma
SNB-75 CNS = tested on: SNB-75 CNS
EKVX NSCLC = tested on: EKVX NSCLC
HS 578T breast = tested on: HS 578T breast
PC-3 prostate = tested on: PC-3 prostate
UO-31 renal = tested on: UO-31 renal
NCI-H460 lung = tested on: NCI-H460 lung
HOP-62 NSCLC = tested on: HOP-62 NSCLC
COLO 205 colon = tested on: COLO 205 colon
U251 CNS = tested on: U251 CNS
CCRF-CEM leukemia = tested on: CCRF-CEM leukemia
KM12 colon = tested on: KM12 colon
SK-MEL-5 melanoma = tested on: SK-MEL-5 melanoma
BT-549 breast = tested on: BT-549 breast
SK-MEL-28 melanoma = tested on: SK-MEL-28 melanoma
OVCAR-5 ovarian = tested on: OVCAR-5 ovarian
HCC-2998 colon = tested on: HCC-2998 colon
SF-295 CNS = tested on: SF-295 CNS
SK-OV-3 ovarian = tested on: SK-OV-3 ovarian
HCT-116 colon = tested on: HCT-116 colon
NCI-H522 lung = tested on: NCI-H522 lung
HOP-92 NSCLC = tested on: HOP-92 NSCLC
TK-10 renal = tested on: TK-10 renal
MDA-MB-435 = tested on: MDA-MB-435
MDA-N = tested on: MDA-N
OVCAR-8 ovarian = tested on: OVCAR-8 ovarian
K-562 leukemia = tested on: K-562 leukemia
SF-539 CNS = tested on: SF-539 CNS
UACC-62 melanoma = tested on: UACC-62 melanoma
DU-145 prostate = tested on: DU-145 prostate
HL-60(TB) leukemia = tested on: HL-60(TB) leukemia
RPMI-8226 leukemia = tested on: RPMI-8226 leukemia
MALME-3M melanoma = tested on: MALME-3M melanoma
MCF7 breast = tested on: MCF7 breast
ACHN renal = tested on: ACHN renal
SK-MEL-2 melanoma = tested on: SK-MEL-2 melanoma
NCI-H23 lung = tested on: NCI-H23 lung
SN12C renal = tested on: SN12C renal
SF-268 CNS = tested on: SF-268 CNS
HCT-15 colon = tested on: HCT-15 colon
MDA-MB-231 breast = tested on: MDA-MB-231 breast
SNB-19 CNS = tested on: SNB-19 CNS
IGROV1 ovarian = tested on: IGROV1 ovarian
SW-620 colon = tested on: SW-620 colon
OVCAR-4 ovarian = tested on: OVCAR-4 ovarian
786-0 renal = tested on: 786-0 renal
A498 renal = tested on: A498 renal
A549 NSCLC = tested on: A549 NSCLC
NCI/ADR-RES ovarian = tested on: NCI/ADR-RES ovarian
HT29 colon = tested on: HT29 colon
MOLT-4 leukemia = tested on: MOLT-4 leukemia
T-47D breast = tested on: T-47D breast
UACC-257 melanoma = tested on: UACC-257 melanoma
CAKI-1 renal = tested on: CAKI-1 renal
RXF 393 renal = tested on: RXF 393 renal
NCI-H226 lung = tested on: NCI-H226 lung
OVCAR-3 ovarian = tested on: OVCAR-3 ovarian
M14 melanoma = tested on: M14 melanoma
SR leukemia = tested on: SR leukemia

SMILES: CCN(CC)CCSc1c(C(C)=O)c(=O)n(-c2ccccc2)c(=S)n1-c1ccccc1
- TGI (LOX IMVI melanoma): 9.04 µM
- TGI (SNB-75 CNS): > 85.1 µM
- TGI (EKVX NSCLC): 32.7 µM
- TGI (HS 578T breast): > 93.4 µM
- TGI (PC-3 prostate): 12 µM
- TGI (UO-31 renal): 3.86 µM
- TGI (NCI-H460 lung): 50.1 µM
- TGI (HOP-62 NSCLC): 45.3 µM
- TGI (COLO 205 colon): 3.92 µM
- TGI (U251 CNS): 33.1 µM
- TGI (CCRF-CEM leukemia): > 100 µM
- TGI (KM12 colon): 35 µM
- TGI (SK-MEL-5 melanoma): > 45.1 µM
- TGI (BT-549 breast): 30.8 µM
- TGI (SK-MEL-28 melanoma): 33.3 µM
- TGI (OVCAR-5 ovarian): 53.2 µM
- TGI (HCC-2998 colon): 24.5 µM
- TGI (SF-295 CNS): > 100 µM
- TGI (SK-OV-3 ovarian): > 100 µM
- TGI (HCT-116 colon): 6.09 µM
- TGI (NCI-H522 lung): 5.54 µM
- TGI (HOP-92 NSCLC): 5.8 µM
- TGI (TK-10 renal): 17.2 µM
- TGI (MDA-MB-435): 21.2 µM
- TGI (MDA-N): 20.9 µM
- TGI (OVCAR-8 ovarian): 10.9 µM
- TGI (K-562 leukemia): > 43.7 µM
- TGI (SF-539 CNS): 6.01 µM
- TGI (UACC-62 melanoma): 27.7 µM
- TGI (DU-145 prostate): 10 µM
- TGI (HL-60(TB) leukemia): 8.71 µM
- TGI (RPMI-8226 leukemia): 8.52 µM
- TGI (MALME-3M melanoma): 20.7 µM
- TGI (MCF7 breast): 8.45 µM
- TGI (ACHN renal): 10.1 µM
- TGI (SK-MEL-2 melanoma): 31.6 µM
- TGI (NCI-H23 lung): 33.2 µM
- TGI (SN12C renal): 31.6 µM
- TGI (SF-268 CNS): 35.8 µM
- TGI (HCT-15 colon): 8.86 µM
- TGI (MDA-MB-231 breast): 26.9 µM
- TGI (SNB-19 CNS): 55.8 µM
- TGI (IGROV1 ovarian): 27.2 µM
- TGI (SW-620 colon): 13.4 µM
- TGI (OVCAR-4 ovarian): 29 µM
- TGI (786-0 renal): 3.38 µM
- TGI (A498 renal): 40.6 µM
- TGI (A549 NSCLC): 30 µM
- TGI (NCI/ADR-RES ovarian): 63.4 µM
- TGI (HT29 colon): 37.7 µM
- TGI (MOLT-4 leukemia): 19.3 µM
- TGI (T-47D breast): 8.36 µM
- TGI (UACC-257 melanoma): 23.4 µM
- TGI (CAKI-1 renal): 24 µM
- TGI (RXF 393 renal): 3.94 µM
- TGI (NCI-H226 lung): > 60.3 µM
- TGI (OVCAR-3 ovarian): 8.79 µM
- TGI (M14 melanoma): 4.12 µM

SMILES: Cc1cc(=O)oc2c(C)c3oc(CBr)cc3cc12
- TGI (LOX IMVI melanoma): 31.1 µM
- TGI (SNB-75 CNS): 47.4 µM
- TGI (EKVX NSCLC): > 100 µM
- TGI (HS 578T breast): > 100 µM
- TGI (SR leukemia): > 100 µM
- TGI (PC-3 prostate): 35 µM
- TGI (UO-31 renal): 30.3 µM
- TGI (NCI-H460 lung): 36.4 µM
- TGI (HOP-62 NSCLC): 33.6 µM
- TGI (COLO 205 colon): 34.2 µM
- TGI (U251 CNS): 47.1 µM
- TGI (CCRF-CEM leukemia): 54.2 µM
- TGI (KM12 colon): 42.1 µM
- TGI (SK-MEL-5 melanoma): 26 µM
- TGI (BT-549 breast): 33.5 µM
- TGI (SK-MEL-28 melanoma): 43.6 µM
- TGI (OVCAR-5 ovarian): 36.8 µM
- TGI (HCC-2998 colon): 31.9 µM
- TGI (SF-295 CNS): 34.3 µM
- TGI (SK-OV-3 ovarian): 75.4 µM
- TGI (HCT-116 colon): 39.4 µM
- TGI (NCI-H522 lung): 30.1 µM
- TGI (TK-10 renal): 89.6 µM
- TGI (MDA-MB-435): 37.7 µM
- TGI (MDA-N): 40.9 µM
- TGI (OVCAR-8 ovarian): 66.7 µM
- TGI (K-562 leukemia): 46.7 µM
- TGI (SF-539 CNS): 50.7 µM
- TGI (UACC-62 melanoma): 33.9 µM
- TGI (DU-145 prostate): > 100 µM
- TGI (HL-60(TB) leukemia): > 100 µM
- TGI (RPMI-8226 leukemia): 42.6 µM
- TGI (MALME-3M melanoma): 40.3 µM
- TGI (MCF7 breast): > 100 µM
- TGI (ACHN renal): 29.8 µM
- TGI (SK-MEL-2 melanoma): 54 µM
- TGI (NCI-H23 lung): 40 µM
- TGI (SN12C renal): 42.2 µM
- TGI (SF-268 CNS): 51.5 µM
- TGI (HCT-15 colon): 44.3 µM
- TGI (MDA-MB-231 breast): 84.7 µM
- TGI (SNB-19 CNS): > 100 µM
- TGI (IGROV1 ovarian): 33.3 µM
- TGI (SW-620 colon): 30.2 µM
- TGI (OVCAR-4 ovarian): 65.1 µM
- TGI (786-0 renal): 32 µM
- TGI (A549 NSCLC): 33.3 µM
- TGI (NCI/ADR-RES ovarian): 58.1 µM
- TGI (HT29 colon): 79.9 µM
- TGI (MOLT-4 leukemia): 54.3 µM
- TGI (T-47D breast): 60.8 µM
- TGI (UACC-257 melanoma): 52.5 µM
- TGI (CAKI-1 renal): 31.8 µM
- TGI (NCI-H226 lung): 34 µM
- TGI (OVCAR-3 ovarian): > 100 µM
- TGI (M14 melanoma): 34.8 µM
